Results published in patent US20200237700A1, “METHODS OF REDUCING OR PREVENTING OXIDATION OF SMALL DENSE LDL OR MEMBRANE POLYUNSATURATED FATTY ACIDS” (Amarin Pharmaceuticals Ireland Limited, priority 2015, published 2020).
Several values for one entry are separate records, joined by “and”; a condition that tells them apart may be missing. Equal entries are not always repeated.

Legend:
[1] = test system: human sdLDL; experiment: Copper-induced sdLDL oxidation, TBARS (Example 7); assay type: biochemical
Description: (§1) An experiment to study the antioxidant effect of EPA in LDL and small dense […] performed. […] Fenofibrate, gemfibrozil, and niacin were purchased from Sigma-Aldrich. […] Vitamin E was also incubated with sample aliquots as a positive control.

[2] = test system: human LDL (unfractionated); experiment: Copper-induced unfractionated LDL oxidation, TBARS 1 hr (Example 7); assay type: biochemical; settings: 10 μM
Description: as §1

[3] = test system: HUVECs exposed to oxLDL; experiment: NO and ONOO− release from HUVECs exposed to oxLDL, nanosensors (Example 8); assay type: cell-based, human
Description: Human umbilical vein endothelial cells (HUVECs) were isolated into primary cultures from female donors by Clonetics (San Diego, Calif.) and purchased as proliferating cells. All cell culture donors were healthy, with no pregnancy or prenatal complications. […] The confluent cells (4 to 5×10^5 cells/35 mm dish) were placed with minimum essential medium containing 3 mM L-arginine and 0.1 mM BH4 [(6R)-5,6,7,8-tetrahydrobiopterin]. Before experimental use, the cells (from second or third passage) were rinsed twice with Tyrode-HEPES buffer with 1.8 mM CaCl2.
The omega-3 fatty acids (O3FAs) cis-5,8,11,14,17-eicosapentaenoic acid (EPA) and docosahexaenoic acid (DHA) were purchased from Sigma-Aldrich (St. Louis, Mo.) and prepared initially at 11 mM in redistilled ethanol. Primary and secondary O3FA stock solutions were prepared and stored under argon at −20° C. […]
Oxidation was monitored by the use of measurements of TBARS. […] TBARS concentration was determined as malondialdehyde (MDA) equivalents with the use of an MDA standard curve. […]
The amperometric method (with a response time of 0.1 ms) provides a quantitative signal (current) that is directly proportional to changes (from basal levels) in NO or ONOO^− concentration. […] Basal NO or ONOO^− levels were measured by differential pulse voltammetry in separate experiments. […]

[4] = test system: sdLDL isolated from human plasma; experiment: Copper-induced sdLDL oxidation 1 hour (Example 12); assay type: biochemical; settings: 10.0 μM; copper-induced oxidation 1 hour
Description: All samples, with the exception of non-oxidized sdLDL controls, were subjected to copper-induced oxidation for 1 hour. Human umbilical vein endothelial cells (HUVECs) were incubated with the various sdLDL samples, stimulated with calcium, and monitored for nitric oxide (NO) and peroxynitrite (ONOO^−) release using nanosensor technology.

[5] = test system: sdLDL isolated from human subjects under hyperglycemia; experiment: Glucose-induced sdLDL oxidation, TBARS/MDA (Example 10); assay type: biochemical; settings: 10.0 μM; glucose 200 mg/dL
Description: Vitamin E (α-tocopherol) purchased from Sigma-Aldrich was prepared in ethanol at 1.0 mM (c=3.06×10^4 M^−1 cm^−1 at 294 nm) prior to experimental use. Test compounds were further diluted in ethanol or aqueous buffer as needed. Phosphate Buffered Saline (PBS) purchased from Sigma-Aldrich was prepared in double distilled water at 10 mM (138 mM NaCl, 2.7 mM KCl, pH 7.4). […] Lipid oxidation was measured by the colorimetric detection of malondialdehyde (MDA), a marker of oxidative stress. Data were presented as mean±SD for (n) separate samples or experiments. Differences between groups were analyzed using the unpaired, two-tailed Student's t-test (for comparisons between only two groups) or ANOVA followed by Student-Newman-Keuls multiple comparisons post hoc analysis (for comparisons between three or more groups).

[6] = Small angle x-ray diffraction of cholesterol-enriched POPC model membranes, cholesterol domain peak intensity (Example 9); assay type: physicochemical
Description: The fatty acid stock solutions were stored at −20° C. until use. […] Samples were shell-dried under nitrogen gas and placed under vacuum for 3 hours to remove residual solvent at room temperature. After desiccation, each sample was resuspended in saline buffer (0.5 mM HEPES, 154 mM NaCl, pH 7.3) to yield a final phospholipid concentration of 2.5 mg/mL. Lipid suspensions were then vortexed for 3 minutes at ambient temperature to form MLVs. Membrane lipid vesicles were oriented for x-ray diffraction analysis as described by others (e.g., Herbette et al., Biophys. […] Briefly, a 100 μL aliquot of each MLV preparation (containing 250 μg MLV) was transferred to a Lucite® sedimentation cell fitted with an aluminum foil substrate designed to collect MLVs into a single membrane pellet upon centrifugation. […] After centrifugal orientation, sample supernatants were aspirated and aluminum foil substrates, each supporting a single membrane pellet, were removed from the sedimentation cells. Sample pellets were dried for 5-10 minutes at ambient conditions, mounted onto curved glass supports, and placed in hermetically-sealed, brass or glass containers (for immediate analysis or temporary storage, respectively). All x-ray diffraction experiments were conducted at 20° C., 74% relative humidity. The latter was established by exposing membrane samples to saturated solutions of L-(+)-tartaric acid (K2C4H4O6.½H2O) for at least 1 hour prior to experimental analysis. Oriented membrane samples were aligned at grazing incidence with respect to a collimated, mono-chromatic CuKα x-ray beam (Kα1 and Kα2 unresolved; λ=1.54 Å) produced by a Rigaku Rotaflex RU-200, high-brilliance microfocus generator (Rigaku-MSC, The Woodlands, Tex.) as previously described (Mason et al., Biophys. J., vol. 55(4), pages 769-778 (1989)). The samples were initially subjected to x-ray diffraction analysis at least 12 hours after formation of the membrane pellets and retested for up to several days. […] Collimation of the x-ray beam was achieved using a single Franks mirror. Diffraction data were collected on a one-dimensional, position-sensitive electron detector (Hecus X-ray Systems, Graz, Austria) at a sample-to-detector distance of 150 mm from the sample site. […] Routines written in Origin 8.6 (OriginLab Corporation, Northampton, Mass.) were used to determine total peak area (associated with all diffraction peaks in a given pattern) against which the second-order cholesterol domain peak was normalized. […] Differences between groups were analyzed using the two-tailed, Student's t-test (for comparisons between only two groups) or ANOVA followed by Dunnett or Student-Newman-Keuls multiple comparisons post-hoc analysis (for comparisons between three or more groups). […]

[7] = EPA to phospholipid 1:30 (Table 3)

Compound	sdLDL oxidation after 4 hours as compared to vehicle or DHA ([1]; 10.0 μM, 4 hours)	inhibition of sdLDL oxidation vs vehicle ([1]; each agent at 1.0 μM, 1 hr) [%]	inhibited TBARS formation / sdLDL oxidation vs vehicle ([1]; each agent at 10 μM, 1 hr)	inhibited TBARS formation compared to vehicle-treated control ([2]; unfractionated LDL) [%]	increased NO release ([3]; ECs exposed to oxLDL, as compared to vehicle) [%]	reduced sdLDL oxidation compared to vehicle treatment alone [4] [%]	inhibited sdLDL oxidation as compared to vehicle controls [5] [%]	sdLDL oxidation (formation of MDA) [5] [µM]	% Change (vs. Control) [6, 7] [%]	Relative Cholesterol Domain Peak Intensity [6, 7]	effect on sdLDL oxidation as compared to vehicle-treated controls ([1]; 10 μM, 1 hour)	effect on unfractionated LDL oxidation as compared to vehicle-treated controls [2]	NO/ONOO− Ratio ([3]; oxLDL 20 min, then treatment 1 hour, EPA 10 μM, ATM 1.0 μM)	glucose-induced sdLDL oxidation [5]	effect on cholesterol domains / domain size ([6]; drug-to-phospholipid mole ratio 1:30)
CC/C=C\C/C=C\C/C=C\C/C=C\C/C=C\CCCC(=O)O [EPA, cis-5,8,11,14,17-eicosapentaenoic acid]	significantly inhibited sdLDL oxidation	19±8	93±2% and 92±8%	> 90	45	> 90	94	0.2 ± 0.1	−65.5 ± 17.1	14.6 ± 5.0					
O=C(O)c1cccnc1 [niacin, nicotinic acid]											no significant effect	no significant effect	2.00 ± 0.52	did not inhibit glucose-induced sdLDL oxidation	no significant changes in cholesterol domain size
